Data set [1] relates to Jurkat cells (acute T-cell leukemia). Nature of the data set: Chemosensitivity assay (MTT-assay), Jurkat. It counts as cell-based, human. To be noted: 96 hours of incubation, mean ± SEM. The method, then: (§1) Depending on the characteristics of the cells, two different assays were performed. For adherently growing cells (HaCaT, HT-29, NCI-H460, SK-MEL-3, MG-63, Capan-1), cytotoxic and cytocidal effects were determined in the crystal violet assay, whereas for loosely adherent cells (LNCaP, SK-ES-1) and cells growing in suspension (HEL 92.1.7, Jurkat, U-937) the MTT-assay was used with minor modifications. In brief, 1.5 · 10^3 (HaCaT, HT-29, NCI-H460, SK-MEL-3, MG-63, Capan-1) or 5 · 10^3 (Jurkat, U-937, HEL92.1.7, LNCaP, SK-ES-1) cells per well were seeded into flat-bottom 96-well plates (Sarstedt, Nümbrecht, Germany). All compounds were used as solutions prepared in DMSO and tested at final concentrations (8 replicates per concentration) of 1, 3, 10, 30 and 50 μM. In case of the vehicle control and test compounds, the final DMSO concentration amounted to 0.1%. Absorbance was measured at 580 nm in a 96-well plate reader (GENios pro microplate reader, Tecan, Salzburg, Austria). Effects were quantified as previously described for both assays.
(Tetrazolium assays rely on reduction of a dye to a coloured formazan, in cell work by metabolically active cells.)

Data set [2] deals with U-937 cells (histiocytic lymphoma). Nature of the data set: Chemosensitivity assay (MTT-assay), U-937. Type of data set: cell-based, human. To be noted: 96 hours of incubation, mean ± SEM. Here is the method:
as §1

The test system of data set [3] is MG-63 cells (osteosarcoma). Put plainly: Chemosensitivity assay (crystal violet assay), MG-63. Type of data set: cell-based, human. To be noted: for IC50: 96 hours of incubation, crystal violet assay, mean ± SEM. Here is the method:
as §1

The test system of data set [4] is SK-ES-1 cells (Ewing's sarcoma). Put plainly: Chemosensitivity assay (MTT-assay), SK-ES-1. It counts as cell-based, human. The note with it: 96 hours of incubation, mean ± SEM. The method, then: as §1
Data set [5] has as its system LNCaP cells (prostate cancer). Put plainly: Chemosensitivity assay (MTT-assay), LNCaP. It counts as cell-based, human. The note with it: 96 hours of incubation, mean ± SEM. The method, then: as §1
In data set [6] the test system is HT-29 cells (colorectal adenocarcinoma). Put plainly: Chemosensitivity assay (crystal violet assay), HT-29. Type of data set: cell-based, human. To be noted: 96 hours of incubation, mean ± SEM. The method, then: as §1
The subject of data set [7] is SK-MEL-3 cells (malignant melanoma). Put plainly: Chemosensitivity assay (crystal violet assay), SK-MEL-3. It counts as cell-based, human. To be noted: mean ± SEM. Here is the method:
as §1

Data set [8] relates to HaCaT cells (spontaneously immortalized human keratinocytes). Put plainly: Kinetic toxicity assay (crystal violet) on HaCaT cells. Type of data set: cell-based. The note with it: kinetic assay, 0.1, 1 and 10 μM, 5 days. Here is the method:
as §1, with “All compounds were used as solutions prepared in DMSO and tested at final concentrations (8 replicates per concentration) of 1, 3, 10, 30 and 50 μM.” left out

The next data set concerns p53 in NCI-H460 cells. Put plainly: p53 expression by immunoblotting, NCI-H460. It counts as cell-based, human. To be noted: NCI-H460 nuclear extracts, 24 hours. The method, then:
The expression of the tumor suppressor p53 by NCI-H460 and HT-29 cells was determined after incubating the cells with compounds 1, 2, 4 and 5 at different concentrations for 24 hours. The cells (from a 10-cm culture dish, 70% confluency) were washed twice with PBS and harvested by scraping after addition of ice-cold buffer A (10 mM HEPES pH = 7.9, 10 mM KCl, 0.1 mM EDTA, 0.1 mM EGTA, protease inhibitor mix (Sigma-Aldrich)). After adding Nonidet P-40 (NP-40) (Sigma, Taufkirchen, Germany) to a final concentration of 1%, the cell suspensions were vortexed and subsequently centrifuged at 13000 g and 4°C for 30 seconds. The pellets were re-suspended in buffer B (buffer A + 400 mM NaCl, 1% NP-40) and gently agitated using a Sarmix M2000 (Sarstedt, Nümbrecht, Germany) at 4°C for 15 min, followed by centrifugation (13000 g, 4°C, 5 min; Microfuge; Eppendorf, Hamburg, Germany). The concentration of soluble protein was determined according to Bradford using the Bio-Rad Protein Assay (Bio-Rad Laboratories, Munich, Germany).
An amount of 30 μg total protein of each sample and 8 μL of a biotinylated molecular weight standard (1:6 dilution) (Cell Signaling, Danvers, MA, USA) was separated by SDS-PAGE (12% gel) and afterwards electroblotted (150 V, 30 min) to nitrocellulose membrane (Peqlab, Erlangen, Germany). To prevent unspecific binding, the membranes were treated with milk powder (5% (m/v) in buffer (150 mM NaCl, 20 mM Tris, 0.1% Tween 20, pH = 7.6)) before incubation with anti-p53 rabbit mAb (dilution 1:1000) (Cell Signaling) and anti-histone H2B Ab (dilution 1:1000) (Cell Signaling) as loading control at 4°C for 14 hours. The primary antibodies and the “protein ladder” were simultaneously detected with a horseradish peroxidase (HRP)-coupled donkey anti rabbit mAb (dilution 1:1000) (Santa Cruz biotechnology, Heidelberg, Germany) or the anti-biotin HRP-coupled antibody (dilution 1:5000) (Cell Signaling), respectively. The incubation with the secondary antibody was performed at room temperature for 1 hour. The bands were detected by […] using the Pierce ECL Western Blotting Substrate (Thermo Scientific, Dreieich, Germany). After exposure, the x-ray film (Amersham Hyperfilm ECL, GE Healthcare, München, Germany) was developed (CAWOMAT 2000 IR, CAWO, Schrobenhausen, Germany) and analyzed using a GS-710 imaging densitometer and Quantity One V. 4 software (Bio-Rad Laboratories, Munich, Germany).
In general terms: A western blot detects proteins with antibodies after separation by electrophoresis.

The subject of another data set is NCI-H460 cells. Put plainly: Stability in the presence of cells (HPLC). It counts as in vitro ADME, human. To be noted: incubation period of 10 minutes. Here is the method:
The recently reported validated HPLC method was applied.
Samples were measured immediately before the incubation (t = 0 minutes) and after 10 minutes of incubation at 25°C (t = 10 minutes). […] (TIF) Click here for additional data file.

The next data set concerns myeloma cells. More on the design: method as in PMID 17653574, PMID 23380051. To be noted: cited from earlier work.
Setting [9] is: Homo sapiens, SK-MEL3, 96 hours of incubation, read-out: IC50.

This is an account of results in PMC4721923 (PLoS ONE, 2015).

The structures appear in SMILES notation. Where two headings read alike, the source gives them in different places. Where only a bound is given, the exact number is not on record here.

The IC50 is the concentration needed to halve the response being measured. For `Cn1c(CCCC(=O)OCCN2CCCC2)nc2cc(N(CCCl)CCCl)ccc21` [Compound 5], the concentration for half-maximal inhibition (IC50) came to 0.61 ± 0.02 µM in data set [1] (Homo sapiens, 96 h); 0.83 ± 0.19 µM in [2] (Homo sapiens, U-937, 96 h); 0.38 ± 0.06 µM in data set [3] (Homo sapiens, MG-63, 96 h); 0.09 ± 0.01 µM in data set [4] (Homo sapiens, SK-ES1, 96 h); 0.5 ± 0.08 µM in [5] (Homo sapiens, read-out: IC50); 1.1 ± 0.1 µM in data set [6] (Homo sapiens, read-out: IC50). For the same molecule, in data set [7] (setting [9]), the IC50 came out at 0.83 ± 0.18 µM. Besides, in data set [8], the “toxicity on HaCaT cells compared to tumor cells” value is listed as “preferential toxicity against tumor cells”. For the same molecule, the p53 expression result in the data set on p53 in NCI-H460 cells (10 μM) was “significantly induced”. Moreover, the “stability in the presence of cells” value with NCI-H460 cells is “Other decomposition products were not detected”.

Take `Cn1c(CCCC(=O)O)nc2cc(N(CCCl)CCCl)ccc21` [Compound 1, bendamustine, reference compound]: the concentration for half-maximal inhibition (IC50) in [1] is 43.4 ± 4.8 µM; in data set [1] (Homo sapiens, 96 h) it was 43 µM; in data set [2], 83.4 ± 8.5 µM; in data set [2] (Homo sapiens, U-937, 96 h) it was above 80 µM; in data set [3] it was 55.8 ± 1.9 µM; in data set [3] (Homo sapiens, MG-63, 96 h) it was around 56 µM. Also, the IC50 was 9.6 ± 0.3 µM in data set [4]; around 10 µM in [4] (Homo sapiens, SK-ES1, 96 h); “only very weakly active” in data set [5]; 77.9 ± 5.6 µM in [5] (Homo sapiens, read-out: IC50); “ineffective” in data set [6]; above 100 µM in [6] (Homo sapiens, read-out: IC50). For the same molecule, the concentration for half-maximal inhibition (IC50) entry is “ineffective” in data set [7] (96 hours of incubation), above 100 µM in [7] (setting [9]) and around 100 µM in the data set on myeloma cells. Also, the “concentrations with cytocidal drug effects” value in data set [3] (kinetic assay, long-term exposure (S6 Fig)) is “above 30 μM”. For the same molecule, the p53 expression result in the data set on p53 in NCI-H460 cells (100 μM) is reported as “weakly induced”. In addition, the “stability in the presence of cells” value with NCI-H460 cells is “Other decomposition products were not detected”.

Take `COC(=O)CCCc1nc2cc(N(CCCl)CCCl)ccc2n1C` [Compound 2]: the IC50 in [1] (Homo sapiens, 96 h) was 3.1 ± 0.1 µM; in [2] (Homo sapiens, U-937, 96 h), 1.8 ± 0.1 µM; in data set [3] (Homo sapiens, MG-63, 96 h), 1.9 ± 0.1 µM; in [4], 0.18 ± 0.02 µM; in data set [4] (Homo sapiens, SK-ES1, 96 h), around 0.2 µM; in [5] (Homo sapiens, read-out: IC50), 0.95 ± 0.15 µM. In addition, the IC50 in data set [6] (Homo sapiens, read-out: IC50) turned out to be 9.4 ± 0.4 µM; in data set [7] (setting [9]) it was 13.8 ± 0.4 µM. Also, the p53 expression entry with p53 in NCI-H460 cells (10 μM) is listed as “significantly induced”. Also, the “stability in the presence of cells” value in the data set with NCI-H460 cells is reported as “Other decomposition products were not detected”.

`Cn1c(CCCC(=O)OCCN2CCOCC2)nc2cc(N(CCCl)CCCl)ccc21` [Compound 4]: the IC50 in data set [1] (Homo sapiens, 96 h) is 3.2 ± 1 µM; in [2] (Homo sapiens, U-937, 96 h), 3.2 ± 0.96 µM; in data set [3] (Homo sapiens, MG-63, 96 h), 3.5 ± 0.1 µM; in data set [4], 0.91 ± 0.08 µM; in [4] (Homo sapiens, SK-ES1, 96 h), 0.9 µM; in [5] (Homo sapiens, read-out: IC50) it was 2.2 ± 0.1 µM. For the same molecule, the half-maximal inhibitory concentration (IC50) in [6] (Homo sapiens, read-out: IC50) came out at 9 ± 0.5 µM; in data set [7] (setting [9]) it was 20.9 ± 0.9 µM. In addition, in data set [8], the “toxicity on HaCaT cells compared to tumor cells” value was “preferential toxicity against tumor cells”. Moreover, the p53 expression result in the data set with p53 in NCI-H460 cells (10 μM) is given as “significantly induced”. The “stability in the presence of cells” value with NCI-H460 cells is given as “Other decomposition products were not detected”.
